Experimental findings from article PMC5660082, “Bioluminescence imaging of G protein-coupled receptor activation in living mice” (Nature Communications, 2017) are described below.

The term EC50 denotes the midpoint of the concentration-response curve.

In the assay the target is T1, Sphingosine-1-phosphate receptor 1 (S1P1) (Mus musculus, UniProt O08530).
T1 construct: gene S1pr1; mouse S1pr1 coding region with C terminus linked to C-terminal firefly luciferase fragment (amino acids #394–550), S1P1–CLuc; with NLuc–β-arrestin2
T1 sequence (O08530 2-382): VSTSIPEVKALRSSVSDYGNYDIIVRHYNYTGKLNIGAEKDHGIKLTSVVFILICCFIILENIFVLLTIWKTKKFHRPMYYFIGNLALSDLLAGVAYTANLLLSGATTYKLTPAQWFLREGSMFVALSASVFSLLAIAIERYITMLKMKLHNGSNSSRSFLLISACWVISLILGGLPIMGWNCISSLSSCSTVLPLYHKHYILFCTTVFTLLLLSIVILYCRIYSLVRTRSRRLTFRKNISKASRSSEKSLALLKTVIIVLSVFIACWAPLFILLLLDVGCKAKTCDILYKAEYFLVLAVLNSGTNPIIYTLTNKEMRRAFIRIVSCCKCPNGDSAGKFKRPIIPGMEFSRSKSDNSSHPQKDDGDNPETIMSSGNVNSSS
T1 sequence (Q91YI4 whole entry partner, the tested form may be a part): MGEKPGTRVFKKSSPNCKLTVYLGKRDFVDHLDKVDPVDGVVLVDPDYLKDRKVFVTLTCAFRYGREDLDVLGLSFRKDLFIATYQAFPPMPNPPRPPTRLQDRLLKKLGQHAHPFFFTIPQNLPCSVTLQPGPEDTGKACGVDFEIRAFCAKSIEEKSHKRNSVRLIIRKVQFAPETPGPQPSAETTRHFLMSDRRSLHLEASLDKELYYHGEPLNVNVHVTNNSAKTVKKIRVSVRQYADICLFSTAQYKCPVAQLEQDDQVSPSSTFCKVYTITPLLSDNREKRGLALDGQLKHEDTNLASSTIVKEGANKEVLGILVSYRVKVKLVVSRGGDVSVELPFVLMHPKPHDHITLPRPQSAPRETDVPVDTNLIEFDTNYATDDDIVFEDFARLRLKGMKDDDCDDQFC
The experiment in a line: split luciferase β-arrestin2 recruitment (bioluminescence) in knock-in mouse embryonic fibroblasts. The assay is classed as cell-based.

Read-outs that look alike come from different tables or passages of the source.

For `CCCCCCCCCCCCCCC[C@@H](O)[C@@H](N)COP(=O)(O)O` [dihydro-S1P], it took 32.4 ± 0.5 nM to reach a half-maximal effect (EC50).
For `CCCCCCCCCCCCC/C=C/[C@@H](O)[C@@H](N)COP(=O)(O)O` [S1P], for the setting “read-out: EC50”, the EC50 amounted to 19.4 ± 0.8 nM.
